Like-named read-outs stand apart in the source and are kept apart here.
Tests used:
[1] = In vivo metabolism (pharmacokinetic) experiment in mice; set-up: species or system male ICR mice; conditions: mouse, male ICR mice; for bioavailability: oral 10 mg/kg vs iv 2.5 mg/kg, read-out: F (%); for AUC(0-inf) / Cmax / half-life: oral 10 mg/kg, plasma; for AUC(0-inf): read-out: AUC0-inf(po); for Cmax: read-out: Cmax (po); for half-life: read-out: T1/2 (po) (converted)
Protocol: Animal: male ICR mice. The animals were randomly assigned to treatment groups and fasted for 12 h prior to dosing.
Drug: the compound of the present disclosure was dissolved in a vehicle (5% DMSO+5% Solutol HS15+90% saline). For intravenous (iv) administration, the dose was 2.5 mg/kg with a dosing volume of 5 mL/kg; for oral (po) administration, the dose was 10 mg/kg with a dosing volume of 10 mL/kg body weight. Sample collection and bioanalysis: blood was collected from the orbit of the mice and added into EP tubes containing heparin sodium at 0.083, 0.25, 0.5, 1, 2, 4, 6, and 8 h (n=3 for each time point). Immediately after blood collection, the mice were euthanized by cervical dislocation, and mouse brains were collected at the corresponding time points. All samples were promptly collected, snap-frozen, and stored at −70° C. for later use. Plasma samples were obtained by centrifugation of whole blood. 10 μL of plasma was mixed with 190 μL of internal standard solution (20 ng/ml in acetonitrile containing 0.1% formic acid). After mixing, the samples were centrifuged at 13000 rpm for 10 min, and 120 μL of the supernatant was separately collected. Depending on the sensitivity of the compound, 0.5-10 μL of the supernatant was taken for drug analysis using the appropriate liquid chromatography-tandem mass spectrometry (LC-MS/MS). Each analyte was calibrated and identified using standards. According to brain tissue: the extract (50% acetonitrile/water) at a ratio of 1 g:8 mL was homogenized for 2 min using five 3 mm magnetic beads in an OMNI Bead Ruptor 24 Elite homogenizer at 3.2 m/s and centrifuged at 4° C. and 3000 g for 3 min. 50 μL of the supernatant was mixed with 200 μL of internal standard solution (20 ng/mL in 80% acetonitrile/water). After mixing, the samples were centrifuged at 13,000 rpm for 10 min, and 120 μL of the supernatant was separately collected. Depending on the sensitivity of the compound, 0.5-10 μL of the supernatant was taken for drug analysis using the appropriate LC-MS/MS method. Each analyte was calibrated and identified using standards.
Data analysis: drug concentrations below the lower limit of quantification (LLOQ) were considered zero. Pharmacokinetic parameters were analyzed using PK Solver with a non-compartmental, bolus injection or extravascular input analysis models. Data points below the LLOQ were excluded to improve the efficacy of t1/2 calculation.

[2] = system: male C57 mice; experiment: Forced swim test; assay type: in vivo; conditions: intraperitoneal injection, test 0.5 h after dosing, motionless time in last 4 min
Protocol: Drug: the compound of the present disclosure was first uniformly mixed with 5% DMSO and 5% Solutol® HS 15. hysiological saline was then added to make up 90% of the final volume. The mixture was prepared at an appropriate concentration immediately before use.
Animal: male C57 mice, about 22 g. The animals were randomly divided into a blank control group and test drug groups, 8 animals per group, and mice in each group were administered either the vehicle or the test compound via intraperitoneal injection.
Experimental steps: the mice were subjected to forced swim test 0.5 h after dosing. The water level in the forced swim device was 45 cm, and the water temperature was 25° C. The mice were placed in an experimental room to adapt to the environment for 1 h before the experiment began. When the experiment began, the mice were placed in the device for 6 min, and the whole process was recorded by a camera. Only the motionless time of the mice in the last 4 min was counted when data were analyzed.

[3] = target: human DAT (Homo sapiens, UniProt Q01959); experiment: DAT transporter inhibitory activity test (neurotransmitter transporter uptake assay kit); assay type: cell-based
human DAT, sequence (Q01959 whole entry): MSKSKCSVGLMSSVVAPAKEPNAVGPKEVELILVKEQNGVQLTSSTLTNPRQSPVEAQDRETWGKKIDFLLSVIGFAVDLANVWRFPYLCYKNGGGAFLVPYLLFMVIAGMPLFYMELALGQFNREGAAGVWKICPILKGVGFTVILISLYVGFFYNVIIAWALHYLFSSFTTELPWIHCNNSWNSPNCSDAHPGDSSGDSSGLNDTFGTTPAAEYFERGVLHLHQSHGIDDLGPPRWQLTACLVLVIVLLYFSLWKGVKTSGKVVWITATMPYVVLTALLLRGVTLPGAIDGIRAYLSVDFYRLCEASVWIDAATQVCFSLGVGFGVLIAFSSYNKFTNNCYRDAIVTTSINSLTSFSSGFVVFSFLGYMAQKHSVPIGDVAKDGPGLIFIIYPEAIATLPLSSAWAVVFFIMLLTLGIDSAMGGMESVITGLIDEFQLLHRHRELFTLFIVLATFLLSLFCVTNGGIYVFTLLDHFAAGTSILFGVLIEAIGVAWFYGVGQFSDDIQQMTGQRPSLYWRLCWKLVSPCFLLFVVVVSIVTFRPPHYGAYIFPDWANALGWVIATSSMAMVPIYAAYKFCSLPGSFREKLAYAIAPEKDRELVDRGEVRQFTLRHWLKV
Protocol: Transporter inhibition of human DAT and NET expressed in HEK-293 cells was assessed using a neurotransmitter transporter uptake assay kit. The assay was performed as described in the kit instructions, using centanafadine as a positive control. The specific procedures were as follows:
DAT stably transfected culture: The DAT-HEK cell line was cultured in DMEM medium containing 10% fetal bovine serum and 0.2 mg/mL hygromycin B at 37° C. with 5% carbon dioxide.
DAT stably transfected cell passage: the old medium was removed, and the cells were washed once with PBS; 1 mL of TrypLE™ Express solution was then added, and the cells were incubated at 37° C. for about 2 min. When the cells were detached from the bottom of the dish, about 5 mL of complete medium pre-heated at 37° C. was added. The cell suspension was gently pipetted to separate the aggregated cells. The cell suspension was transferred to a sterile centrifuge tube and centrifuged at 1000 rpm for 5 min. In order to maintain the physiological activity of the cells, the experimental cell confluence was controlled at about 80%.
• a) After overnight transfection of NET cells, the cells were digested with trypsin, resuspended with DMEM+10% Dialyzed FBS medium, seeded into a 384-well plate at 20000 cells/well, and incubated overnight. […] After centrifuging, the plate was incubated at 37° C. for 30 min. • e) A detection reagent was prepared using 1×HBSS, and 16 μL of the detection reagent was added to each well. […] Curve fitting and IC50 calculation were performed using GraphPad Prism software nonlinear regression method.

[4] = Human liver microsome assay (metabolic stability); assay type: in vitro ADME; conditions: for half-life at 1 μM / CLint scaled at 1 μM: pH 7.4
Protocol: Control and reagent: NADPH, magnesium chloride, testosterone, phosphate buffer, etc. were supplied by Dalian Meilun Biotech Co., Ltd., etc.
Liver microsome: human liver microsomes were supplied by Corning.
Experimental step: the liver microsome incubations were performed in 96-well plates, each incubation system having a volume of 200 μL, in a medium of 0.1 M phosphate buffer (pH 7.4), including liver microsomes at a final concentration of 0.2 mg/mL, 1 μM of the test drug, 3.0 mM MgCl2, 0.01% DMSO, 0.5% acetonitrile, and 2.0 mM NADPH. The incubation system described above without NADPH was pre-incubated at 37° C. for 5 min using a rotary water bath constant temperature oscillator. NADPH was added to initiate the reaction. At 0, 5, 15, 30, and 60 min, 20 μL of the sample was taken out from the incubation system after mixing well and added to 200 μL of acetonitrile containing an internal standard to terminate the reaction. Under the same conditions, 1 μM testosterone was used as a positive control to assess the reliability of the reaction system. For the negative control, phosphate buffer was used instead of NADPH, and all other incubation conditions remained the same. At 60 min, 20 μL of the sample was taken out after mixing well and added to 200 μL of termination solution containing an internal standard to terminate the reaction.
Sample analysis: After treatments such as precipitated protein extraction with an organic solvent, the incubated sample was analyzed using liquid chromatography-tandem mass spectrometry (LC-MS/MS). The concentrations of the test drug or the positive control drug in the sample were semi-quantified. The concentration in the sample was expressed using the ratio of the analyte peak area to the internal standard peak area.
Data processing and analysis: A standard curve of the In residual rate of the drug in the incubation system with respect to the incubation time was plotted by using Excel software, linear regression was performed to obtain a slope k, and the half-life T1/2 (min) and the intrinsic clearance CLint (mL/min/kg) were calculated according to the following formula: […]

[5] = target: human SERT (Homo sapiens, UniProt P31645); experiment: Inhibitory activity assay against 5-HT transporter (neurotransmitter transporter uptake assay kit); assay type: cell-based; conditions: HEK-293 cells overexpressing human SERT; read-out: 5-HTT (IC50)
human SERT, sequence (P31645 whole entry): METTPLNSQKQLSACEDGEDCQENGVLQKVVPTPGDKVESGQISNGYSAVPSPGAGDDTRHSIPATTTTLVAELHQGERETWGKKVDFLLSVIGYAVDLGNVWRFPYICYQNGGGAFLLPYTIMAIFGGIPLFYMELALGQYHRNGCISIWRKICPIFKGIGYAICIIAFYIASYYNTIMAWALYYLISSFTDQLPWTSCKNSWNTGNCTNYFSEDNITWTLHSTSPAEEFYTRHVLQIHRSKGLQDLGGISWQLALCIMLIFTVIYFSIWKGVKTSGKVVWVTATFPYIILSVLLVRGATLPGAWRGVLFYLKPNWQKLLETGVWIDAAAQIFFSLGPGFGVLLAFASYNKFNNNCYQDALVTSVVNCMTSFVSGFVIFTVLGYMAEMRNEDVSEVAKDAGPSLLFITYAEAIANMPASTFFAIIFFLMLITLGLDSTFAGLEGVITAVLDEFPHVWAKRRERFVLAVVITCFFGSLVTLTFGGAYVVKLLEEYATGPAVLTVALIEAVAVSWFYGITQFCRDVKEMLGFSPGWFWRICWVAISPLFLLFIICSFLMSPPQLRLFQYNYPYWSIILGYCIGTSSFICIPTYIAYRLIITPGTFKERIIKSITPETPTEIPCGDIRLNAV
Protocol: In HEK-293 cells overexpressing human SERT, the transporter inhibitory effect of the test compound on human SERT was assayed using a Neurotransmitter transporter uptake assay kit (Molecular devices).

[6] = human liver microsomes 0.2 mg/mL, 1 μM test drug, NADPH, 37° C., read-out: Half-life (t1/2, min)
[7] = human liver microsomes 0.2 mg/mL, 1 μM test drug, NADPH, 37° C., read-out: Intrinsic clearance (Clint, mL/min/kg)

Nc1nc2c(s1)CC(N)(c1ccccc1)CC2 (racemic) [rac-A1, 6-phenyl-4,5,6,7-tetrahydrobenzothiazole-2,6-diamine]
bioavailability ([1]; male, ICR, po, 10 mg/kg): 132%
AUC(0-inf) ([1]; male, ICR, po, 10 mg/kg): 2830 ng·h/mL
Cmax ([1]; male, ICR, po, 10 mg/kg): 413 ng/mL
half-life ([1]; male, ICR, po, 10 mg/kg): 4.68 h
Effective dose [2]: 1 mg/kg

CCCNC1(c2ccccc2)CCc2nc(N)sc2C1 (racemic) [rac-A7, 6-phenyl-N^6-propyl-4,5,6,7-tetrahydrobenzothiazole-2,6-diamine]
IC50 [3]: 4.5 µM
half-life at 1 μM [4, 6]: > 120 min
bioavailability ([1]; male, ICR, po, 10 mg/kg): 55%
AUC(0-inf) ([1]; male, ICR, po, 10 mg/kg): 768 ng·h/mL
Cmax ([1]; male, ICR, po, 10 mg/kg): 208 ng/mL
half-life ([1]; male, ICR, po, 10 mg/kg): 1.72 h

Nc1nc2c(s1)CC(N)(c1ccccc1F)CC2 (racemic) [rac-A9, 6-(2-fluorophenyl)-4,5,6,7-tetrahydrobenzothiazole-2,6-diamine]
Effective dose [2]: 1 mg/kg
IC50 [5]: 0.8 µM

c1ccc(C2(N3CCCC3)CCc3[nH]ncc3C2)cc1 (racemic) [rac-A12, 5-phenyl-5-(pyrrolidin-1-yl)-4,5,6,7-tetrahydro-1H-indazole]
CLint scaled at 1 μM ([4]; human, microsomes): 12.4 mL/min/kg
half-life at 1 μM ([4]; human, microsomes): 327 min
Effective dose [2]: 1 mg/kg

NC1(c2ccccc2)CCc2ncsc2C1 (racemic) [rac-A14, 6-phenyl-4,5,6,7-tetrahydrobenzothiazol-6-amine]
half-life at 1 μM [4, 6]: > 120 min
bioavailability ([1]; male, ICR, po, 10 mg/kg): 105%
AUC(0-inf) ([1]; male, ICR, po, 10 mg/kg): 2900 ng·h/mL
Cmax ([1]; male, ICR, po, 10 mg/kg): 1430 ng/mL
half-life ([1]; male, ICR, po, 10 mg/kg): 1.5 h
Effective dose [2]: 3 mg/kg

NC1(c2ccccc2)CCCc2sccc21 (racemic) [rac-A16, 4-phenyl-4,5,6,7-tetrahydrobenzothiophen-4-amine]
half-life at 1 μM [4, 6]: 42 min
CLint scaled at 1 μM [4, 7]: 95.5 mL/min/kg
bioavailability [1]: 41%
AUC(0-inf) [1]: 501 ng·h/mL
Cmax [1]: 252 ng/mL
half-life [1]: 1.76 h
Effective dose [2]: 3 mg/kg

Nc1nc2c(s1)CCCC2(N)c1ccccc1 (racemic) [rac-A35, 4-phenyl-4,5,6,7-tetrahydrobenzothiazole-2,4-diamine]
AUC(0-inf) ([1]; male, ICR, po, 10 mg/kg): 5110 ng·h/mL
Cmax ([1]; male, ICR, po, 10 mg/kg): 1140 ng/mL
half-life ([1]; male, ICR, po, 10 mg/kg): 2.66 h
Effective dose [2]: 3 mg/kg

c1ccc(C2(N3CCCC3)CCc3oncc3C2)cc1 (racemic) [rac-A55, 5-phenyl-5-(pyrrolidin-1-yl)-4,5,6,7-tetrahydrobenzo[d]isoxazole]
IC50 ([3]; DAT stably transfected HEK cells, read-out: DAT (IC50)): 4.5 µM
half-life at 1 μM [4, 6]: 62 min
CLint scaled at 1 μM [4, 7]: 65.8 mL/min/kg
IC50 [5]: 7.2 µM

c1ccc(C2(N3CCCCC3)CCc3[nH]ncc3C2)cc1 (racemic) [rac-A70, 5-phenyl-5-(piperidin-1-yl)-4,5,6,7-tetrahydro-1H-indazole]
half-life at 1 μM [4, 6]: > 120 min
Effective dose [2]: 1 mg/kg

Nc1nc2c(s1)CCC(N)(c1ccccc1)C2 (racemic) [rac-A132, 5-phenyl-4,5,6,7-tetrahydrobenzo[d]thiazole-2,5-diamine]
Effective dose [2]: 3 mg/kg

CCOc1cccc(C2(N)CCc3nc(N)sc3C2)c1 (racemic) [rac-A228, 6-(3-ethoxyphenyl)-4,5,6,7-tetrahydrobenzo[d]thiazole-2,6-diamine]
Effective dose [2]: 5 mg/kg

Nc1nc2c(s1)CC(N)(c1cccc(OCC(F)(F)F)c1)CC2 (racemic) [rac-A255, 6-(3-(2,2,2-trifluoroethoxy)phenyl)-4,5,6,7-tetrahydrobenzo[d]thiazole-2,6-diamine]
Effective dose [2]: 5 mg/kg

Nc1nc2c(s1)CC(N)(c1cccc(OC(F)F)c1)CC2 (racemic) [rac-A256, 6-(3-(difluoromethoxy)phenyl)-4,5,6,7-tetrahydrobenzo[d]thiazole-2,6-diamine]
Effective dose [2]: 5 mg/kg

Nc1nc2c(s1)CC(N)(c1cccc(OCC3CC3)c1)CC2 (racemic) [rac-A259, 6-(3-(cyclopropylmethoxy)phenyl)-4,5,6,7-tetrahydrobenzo[d]thiazole-2,6-diamine]
Effective dose [2]: 5 mg/kg

CNC1(c2cccc(OC(F)F)c2)CCc2nc(N)sc2C1 (racemic) [rac-A282, 6-(3-(difluoromethoxy)phenyl)-N6-methyl-4,5,6,7-tetrahydrobenzo[d]thiazole-2,6-diamine]
Effective dose [2]: 5 mg/kg

C[C@]12CC[C@H]3[C@@H](CCC4=CC(=O)CC[C@@]43C)[C@@H]1CC[C@@H]2O [Testosterone, testosterone, reference compound]
Half-life (t1/2, min) ([4]; human liver microsomes 0.2 mg/mL, 1 μM test drug, NADPH, 37° C.): 15.3 min
CLint scaled at 1 μM [4, 7]: 265 mL/min/kg

Reference: patent US20260174739A1 (priority 2022, published 2026)
